Measured values published in PubChem BioAssay (NCI).
Several values for one entry are separate records, joined by “and”; a condition that tells them apart may be missing. Equal entries are not always repeated.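 Assay format: 96-well plates, 48-hour exposure. GI50 marks 50% less growth. TGI: total growth inhibition.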

Tests used:
Assay in all cases: growth of human tumour cells (NCI), 48 h
MCF7 breast = test system: MCF7 breast
OVCAR-5 ovarian = test system: OVCAR-5 ovarian
SF-539 CNS = test system: SF-539 CNS
COLO 205 colon = test system: COLO 205 colon
KM12 colon = test system: KM12 colon
HCC-2998 colon = test system: HCC-2998 colon
SW-620 colon = test system: SW-620 colon
MOLT-4 leukemia = test system: MOLT-4 leukemia
MALME-3M melanoma = test system: MALME-3M melanoma
HCT-15 colon = test system: HCT-15 colon

SMILES	GI50 (MCF7 breast)	TGI (MCF7 breast)	GI50 (OVCAR-5 ovarian)	TGI (OVCAR-5 ovarian)	GI50 (SF-539 CNS)	TGI (SF-539 CNS)	GI50 (COLO 205 colon)	TGI (COLO 205 colon)	GI50 (KM12 colon)	GI50 (HCC-2998 colon)	TGI (HCC-2998 colon)	GI50 (SW-620 colon)	TGI (SW-620 colon)	GI50 (MOLT-4 leukemia)	TGI (MOLT-4 leukemia)	GI50 (MALME-3M melanoma)	TGI (MALME-3M melanoma)	GI50 (HCT-15 colon)	TGI (HCT-15 colon)	TGI (KM12 colon)
COc1ccc(C(O)c2cc3c(N)c(C(=O)Nc4cccc5ccccc45)sc3nc2C)cc1 (centres undefined)	0.324 µM	> 90.9 µM	0.493 µM	> 100 µM	0.025 µM	0.0698 µM	0.457 µM	> 33.1 µM	0.328 µM	0.475 µM	> 54 µM	0.284 µM	> 100 µM	0.399 µM	> 33.2 µM	0.544 µM	> 60.8 µM	0.326 µM	> 48.7 µM	
ClCCOCCn1cnc2c(Cl)nc(Cl)nc21	3.57 µM	21.4 µM	15 µM	28.9 µM	12.1 µM	25.8 µM	13.2 µM	27.5 µM	15.9 µM	1.42 µM	2.88 µM	6.36 µM	20.3 µM	24.7 µM	> 100 µM	13.1 µM	28.2 µM	4.89 µM	18.9 µM	29.6 µM
CCN(CC)c1ccc2nc3ccc(=[N+](CC)CC)cc-3oc2c1	0.029 µM	0.276 µM	0.442 µM	2.92 µM	0.286 µM	18.1 µM	0.0222 µM	0.86 µM	0.122 µM	0.395 µM	39.4 µM	0.0449 µM	> 100 µM	0.286 µM	> 100 µM	0.115 µM	0.628 µM	1.49 µM	> 64.8 µM	8.13 µM
COCCN(Cc1ccc(F)cc1)c1ccc(CO)c(Cl)c1	2.79 µM	> 100 µM	0.431 µM	2.52 µM	> 71.3 µM	> 100 µM	11.1 µM	31.8 µM	33.8 µM	24 µM	> 100 µM	7.29 µM	> 100 µM	34 µM	> 78.9 µM	> 57.1 µM	> 100 µM	30.6 µM	> 100 µM	> 100 µM
CCCCCC(=O)O[C@]1(C(C)=O)CCC2C3CCC4=CC(=O)CC[C@]4(C)C3CC[C@@]21C (some centres undefined)	2.51 µM	8.39 µM	5.04 µM	22.3 µM	2.94 µM	8.31 µM	2.13 µM	4.04 µM	2.24 µM	2.55 µM	7.56 µM	2.86 µM	15.1 µM	2.21 µM	5.17 µM	2.18 µM	6.05 µM	3.22 µM	12.6 µM	5.24 µM
Fc1ccc(NC(c2ccc(F)cc2)C2CCN(CCCCc3ccccc3)CC2)cc1 (centres undefined)	1.64 µM	3.24 µM	1.7 µM	4.04 µM	1.71 µM	3.1 µM	1.6 µM	3.2 µM	1.85 µM	1.76 µM	3.31 µM	1.26 µM	2.57 µM	1.74 µM	4.37 µM	1.4 µM	2.88 µM	1.45 µM	2.89 µM	3.67 µM
S=C1SCN(Cc2ccccc2)CN1Cc1ccco1	1.78 µM	16.1 µM	9.73 µM	21.9 µM	2.24 µM	6.68 µM	4.4 µM	14.3 µM	1.52 µM	16.6 µM	34.1 µM	4.52 µM	18.1 µM	5.91 µM	76 µM	8.44 µM	23.5 µM	2.95 µM	14.4 µM	10.6 µM
C=CCN(CC=C)C(=O)c1cc(C)nc2c1c(=O)n(-c1ccccc1)c(=O)n2CCCN1CCN(c2ccccc2OC)CC1	> 50 µM	> 50 µM	> 50 µM	> 50 µM	> 50 µM	> 50 µM	> 50 µM	> 50 µM	> 50 µM	> 50 µM	> 50 µM	> 50 µM	> 50 µM	> 50 µM	> 50 µM	> 50 µM	> 50 µM	> 50 µM	> 50 µM	> 50 µM
Cc1cc(Br)c(NC(=O)c2c(-c3c(Cl)cccc3Cl)noc2C)c(Br)c1	> 100 µM	> 100 µM	> 100 µM	> 100 µM	> 100 µM	> 100 µM	> 100 µM	> 100 µM	> 100 µM	> 100 µM	> 100 µM	> 100 µM	> 100 µM	> 100 µM	> 100 µM	> 100 µM	> 100 µM	> 100 µM	> 100 µM	> 100 µM
C=C(CN1CCc2[nH]c3ccc(F)cc3c2C1)c1ccc(C(=O)Nc2ccccc2N)cc1	2.45 µM	69.2 µM	4.32 µM	20.6 µM	0.38 µM	2.32 µM	2.37 µM	6.66 µM	0.524 µM	1.38 µM	3.82 µM	0.715 µM	15.6 µM	1.92 µM	6.56 µM	0.389 µM	3.1 µM	3.17 µM	12.6 µM	2.94 µM
COc1ccc(/C=C2\CCC/C(=C\c3ccc(OC)c(OC)c3)C2=O)cc1OC	1.19 µM	> 32.5 µM	25 µM	> 32.5 µM	8.55 µM	> 32.5 µM	1.46 µM	> 32.5 µM	1.02 µM	> 32.5 µM	> 32.5 µM	1.49 µM	24.1 µM	4.74 µM	> 32.5 µM	8.51 µM	> 32.5 µM	4.96 µM	> 32.5 µM	> 32.5 µM
COC12C(COC(=O)NCCO)C3=C(C(=O)C(C)=C(N)C3=O)N1CC1NC12 (centres undefined)		118 µM	78.1 µM	> 264 µM	13.9 µM	98.7 µM		85.8 µM	61.7 µM		99.3 µM	26.7 µM	110 µM		> 264 µM	45.3 µM	64 µM and 101 µM		> 264 µM	177 µM
O=C(Nc1ccc(OC(F)(F)Cl)cc1)c1cnc(N2CC[C@@H](O)C2)c(-c2ccn[nH]2)c1	10 µM	32.8 µM	12.9 µM	34.2 µM	13.6 µM	29.1 µM	5.58 µM	19.7 µM	9.26 µM	8.41 µM	22.2 µM	5.84 µM	20.5 µM	9.23 µM	31.7 µM	12.5 µM	26 µM	7.61 µM	24.2 µM	24.2 µM
[O]=[V]([OH])([OH])[OH]	> 100 µM	> 100 µM	> 100 µM	> 100 µM	> 100 µM	> 100 µM	> 100 µM	> 100 µM	> 100 µM	> 100 µM	> 100 µM	> 100 µM	> 100 µM	> 100 µM	> 100 µM	> 100 µM	> 100 µM	> 100 µM	> 100 µM	> 100 µM
